In the NIST ThermoML archive (doi:10.1016/j.tca.2012.10.004):
± gives the expanded uncertainty stated by the source.

Assay: xn = mol fraction of the nth substance listed
Conditions: 101 kPa, Liquid, Pycnometric method

CN(CCO)CCO [N-methyldiethanolamine] + O=S1(=O)CCCC1
mass density [kg/m3]
Conditions | x1 = 0.1001 | x1 = 0.2012 | x1 = 0.2999 | x1 = 0.4003 | x1 = 0.5005 | x1 = 0.6 | x1 = 0.7002 | x1 = 0.8011 | x1 = 0.8998 | x1 = 1
293.15 K | 1241.9 ± 0.6 | 1214.9 ± 0.6 | 1188 ± 0.6 | 1163.1 ± 0.6 | 1139.8 ± 0.5 | 1118.1 ± 0.5 | 1097.7 ± 0.5 | 1078.9 ± 0.5 | 1059.9 ± 0.5 | 1041.6 ± 0.5
298.15 K | 1237.6 ± 0.6 | 1210.5 ± 0.6 | 1183.9 ± 0.6 | 1159.1 ± 0.6 | 1135.7 ± 0.5 | 1114.1 ± 0.5 | 1093.6 ± 0.5 | 1074.9 ± 0.5 | 1055.9 ± 0.5 | 1037.9 ± 0.5
303.15 K | 1233.1 ± 0.6 | 1205.9 ± 0.6 | 1179.5 ± 0.6 | 1154.8 ± 0.6 | 1131.5 ± 0.6 | 1110 ± 0.5 | 1089.6 ± 0.5 | 1070.9 ± 0.5 | 1051.9 ± 0.5 | 1034.1 ± 0.5
308.15 K | 1228.6 ± 0.6 | 1201.5 ± 0.6 | 1175.1 ± 0.6 | 1150.4 ± 0.6 | 1127.2 ± 0.6 | 1105.8 ± 0.5 | 1085.6 ± 0.5 | 1066.8 ± 0.5 | 1048 ± 0.5 | 1030.3 ± 0.5
313.15 K | 1224.1 ± 0.6 | 1197 ± 0.6 | 1170.7 ± 0.6 | 1146.2 ± 0.6 | 1123.1 ± 0.6 | 1101.6 ± 0.6 | 1081.5 ± 0.5 | 1062.8 ± 0.5 | 1044 ± 0.5 | 1026.5 ± 0.5
318.15 K | 1219.6 ± 0.7 | 1192.4 ± 0.6 | 1166.3 ± 0.6 | 1141.9 ± 0.6 | 1118.9 ± 0.6 | 1097.5 ± 0.6 | 1077.5 ± 0.5 | 1058.7 ± 0.5 | 1040 ± 0.5 | 1022.7 ± 0.5
323.15 K | 1215.2 ± 0.7 | 1187.6 ± 0.6 | 1161.9 ± 0.6 | 1137.5 ± 0.6 | 1114.6 ± 0.6 | 1093.3 ± 0.6 | 1073.3 ± 0.6 | 1054.7 ± 0.5 | 1035.9 ± 0.5 | 1018.9 ± 0.5
328.15 K | 1211.1 ± 0.7 | 1183.3 ± 0.7 | 1157.7 ± 0.6 | 1133.2 ± 0.6 | 1110.4 ± 0.6 | 1089.2 ± 0.6 | 1069.2 ± 0.6 | 1050.6 ± 0.6 | 1032 ± 0.5 | 1015 ± 0.5
